These results are taken from patent publication US5455230A, “Delta opioid receptor antagonists and their use as analgesic agents” (Aktiebolaget Astra, priority 1993, dated 1995).

Test [1] addresses T1, δ opioid receptor (Rattus norvegicus, UniProt P33533).
T1 construct: from tissue; host or cells: rat brain (without cerebellum) membranes, Sprague-Dawley
As to the kind of experiment: δ opioid receptor binding assay, displacement of δ-selective radioligand from rat brain membranes. Conditions: for Ki^μ /Ki^δ (δ-selectivity): ratio of μ and δ binding constants. An excerpt: (§1) In the case of κ-ligands guinea pig brain homogenates were used, since the relative proportion of κ-binding sites is higher in guinea pig brain than in rat brain. The experimental procedure being used in our laboratory represents a modified version of the binding assay described by Pastemak et al. (Mol. Pharmacol. 11,340-351, (1975)). Male Sprague-Dawley rats (300-350 g) from the Canadian Breeding Laboratories were decapitated and after removal of the cerebellum the brains were homogenized in 30 volumes of ice-cold standard buffer (50 mM Tris-HCl, pH 7.7). After centrifugation at 30,000×g for 30 min at 4° C. the membranes were reconstituted in the original volume of standard buffer and incubated for 30 min at 37° C. (to release bound endogenous ligands). […] The incubation was terminated by filtration through Whatman GF/B filters under vacuum at 4° C. Following two washings with 5 ml portions of ice-cold standard buffer the filters were transferred to scintillation vials and treated with 1 ml Protosol (New England Nuclear) for 30 min prior to the addition of 0.5 ml acetic acid and 10 ml Aquasol (New England Nuclear). After shaking for 30 min the vials were counted at an efficiency of 40-45%. All experiments were performed in duplicates and repeated at least three times. […] Values of half-maximal inhibition (IC50) of specific binding were obtained graphically from semilogarithmic plots.

The target in test [2] is T2, μ opioid receptor (Rattus norvegicus, UniProt P33535).
T2 construct: from tissue; host or cells: rat brain (without cerebellum) membranes, Sprague-Dawley
T2 sequence (P33535 whole entry): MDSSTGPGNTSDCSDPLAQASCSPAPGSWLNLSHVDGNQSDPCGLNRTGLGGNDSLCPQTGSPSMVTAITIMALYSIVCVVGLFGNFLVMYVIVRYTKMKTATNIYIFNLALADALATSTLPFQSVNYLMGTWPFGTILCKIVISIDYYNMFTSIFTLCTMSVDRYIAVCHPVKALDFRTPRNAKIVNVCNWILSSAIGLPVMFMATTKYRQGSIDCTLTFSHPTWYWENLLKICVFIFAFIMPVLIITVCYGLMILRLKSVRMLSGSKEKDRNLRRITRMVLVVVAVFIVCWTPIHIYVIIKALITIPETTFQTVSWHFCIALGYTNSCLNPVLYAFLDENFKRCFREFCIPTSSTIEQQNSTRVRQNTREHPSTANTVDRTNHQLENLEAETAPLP
As to the kind of experiment: μ opioid receptor binding assay, displacement of [3H]DAMGO from rat brain membranes.
From the text: as §1

Test [3] has as its target T3, μ opioid receptors (Cavia porcellus, UniProt P97266). Put plainly: GPI assay: inhibition of electrically evoked contractions of the guinea pig ileum. Conditions: read-out: IC50 (μ agonist potency) in the GPI assay. An excerpt: In the GPI assay the opioid effect is primarily mediated by μ opioid receptors, whereas in the MVD assay the inhibition of the contractions is mostly due to interaction with δ opioid receptors.

The target in test [4] is T4, δ opioid receptors (Mus musculus, UniProt P32300).
T4 construct: electrically evoked contractions of the mouse vas deferens (MVD); from tissue; host or cells: isolated mouse vas deferens
T4 sequence (P32300 whole entry): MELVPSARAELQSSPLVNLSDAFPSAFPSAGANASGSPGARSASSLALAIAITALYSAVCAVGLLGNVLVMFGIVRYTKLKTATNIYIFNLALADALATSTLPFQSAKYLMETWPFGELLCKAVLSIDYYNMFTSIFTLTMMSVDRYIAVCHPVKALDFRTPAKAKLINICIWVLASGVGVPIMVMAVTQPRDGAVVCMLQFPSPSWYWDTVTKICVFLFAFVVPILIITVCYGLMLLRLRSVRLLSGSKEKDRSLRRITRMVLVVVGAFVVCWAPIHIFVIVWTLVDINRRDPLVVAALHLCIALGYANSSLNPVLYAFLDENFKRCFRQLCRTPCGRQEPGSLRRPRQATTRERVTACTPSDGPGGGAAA
Put plainly: MVD assay: antagonism of δ agonist inhibition of electrically evoked contractions of the mouse vas deferens. Conditions: comparison with the patent's best compounds. An excerpt:
Biosassys based on inhibition of electrically evoked contractions of the mouse vas deferens (MVD) and of the guinea pig ileum (GPI). In the GPI assay the opioid effect is primarily mediated by μ opioid receptors, whereas in the MVD assay the inhibition of the contractions is mostly due to interaction with δ opioid receptors. Antagonist potencies in these assays are expressed as so-called Ke -values (H. W. Kosterlitz & A. J. Watt, Br. J. Pharmacol. 33, 266-276 (1968)).
The GPI and MVD bioassays were carried out as reported in P. W. Schiller et al Biochem. Biophys. Res. Commun 85, 1332-1338 (1978) and J. DiMaio et al, J. Med. Chem 25 1432-1438 (1982). A log dose-response curve was determind with [Leu^5 ]enkephalin as standard for each ileum and vas preparation, and IC50 values of the compounds being tested were normalized according to A. A Waterfield et al Eur. J. Pharmacod 58, 11-18 (1979). Ke values for the TIPP-related antagonists were determind from the ratio of IC50 values (DR) obtained in the presence and absence of a fixed antagonist concentration (a) (Ke =a/(DR-1) H. W. Kosterlitz & A. J. Watt, Br. J. Pharmacol. 33, 266-276 (1968). These determinations were made with the MVD assay, using three different δ -selective agonists ([Leu^5 ] enkephalin, DPDPE and [D-Ala^2 ]deltorphin I.

The target of test [5] is T3, μ opioid receptors. Particulars: literature value, Portoghese J. Med. Chem. 34, 1757 (1991); cited from earlier work.

Peptide text beside a SMILES is read from it.

T1 sequence (P33533 whole entry): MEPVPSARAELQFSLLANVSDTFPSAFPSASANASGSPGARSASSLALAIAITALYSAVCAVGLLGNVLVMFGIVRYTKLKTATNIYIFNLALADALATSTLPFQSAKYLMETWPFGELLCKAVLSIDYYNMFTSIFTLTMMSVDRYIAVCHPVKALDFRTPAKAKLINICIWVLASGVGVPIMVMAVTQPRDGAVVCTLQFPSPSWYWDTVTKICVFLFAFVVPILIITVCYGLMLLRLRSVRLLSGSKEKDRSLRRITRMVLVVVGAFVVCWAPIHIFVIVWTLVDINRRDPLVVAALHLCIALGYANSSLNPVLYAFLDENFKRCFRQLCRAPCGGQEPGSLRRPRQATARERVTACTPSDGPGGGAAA
T3 sequence (P97266 whole entry, looked up): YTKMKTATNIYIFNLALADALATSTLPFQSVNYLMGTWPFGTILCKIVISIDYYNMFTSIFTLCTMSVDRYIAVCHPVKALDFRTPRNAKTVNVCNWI

Regarding `NC(=O)[C@H](Cc1ccccc1)NC(=O)[C@@H]1Cc2ccccc2CN1C(=O)[C@@H](N)Cc1ccc(O)cc1` [H--Tyr--Tic--Phe--NH2] (HELM PEPTIDE1{Y.[Tic].F.[am]}$$$$V2.0), the Ki in test [1] worked out at 12 ± 1.3 nM; in test [2] it was 624 ± 79 nM. Further, the “Ki^μ /Ki^δ (δ-selectivity)” value in test [1] worked out at 52.0.
Regarding `N[C@@H](Cc1ccc(O)cc1)C(=O)N1Cc2ccccc2C[C@H]1C(=O)N[C@@H](Cc1ccccc1)C(=O)O` [H--Tyr--Tic--Phe--OH] (HELM PEPTIDE1{Y.[Tic].F}$$$$V2.0), the “Ki^μ /Ki^δ (δ-selectivity)” value in test [1] was 141.
Take `N[C@@H](Cc1ccc(O)cc1)C(=O)N1Cc2ccccc2C[C@H]1C(=O)N[C@@H](Cc1ccccc1)C(=O)N[C@@H](Cc1ccc([N+](=O)[O-])cc1)C(=O)O` [H--Tyr--Tic--Phe--Phe(p-NO2)--OH] (HELM PEPTIDE1{Y.[Tic].F.[O=C(O)[C@H](Cc1ccc([N+](=O)[O-])cc1)N[*:1]]}$$$$V2.0): in test [1], the inhibition constant Ki turned out to be 0.703 ± 0.099 nM and the “Ki^μ /Ki^δ (δ-selectivity)” value is recorded as 4110. Also, the Ki in test [2] was determined as 2890 ± 660 nM.
On to `NC(=O)[C@H](Cc1ccccc1)NC(=O)[C@H](Cc1ccccc1)NC(=O)[C@@H]1Cc2ccccc2CN1C(=O)[C@@H](N)Cc1ccc(O)cc1` [H--Tyr--Tic--Phe--Phe--NH2] (HELM PEPTIDE1{Y.[Tic].F.F.[am]}$$$$V2.0), for which, in test [1], the “Ki^μ /Ki^δ (δ-selectivity)” value was determined as 26.3. For the same molecule, the IC50 in test [3] is 1700 ± 220 nM.
As to `NC(=O)[C@H](Cc1c[nH]c2ccccc12)NC(=O)[C@H](Cc1ccccc1)NC(=O)[C@@H]1Cc2ccccc2CN1C(=O)[C@@H](N)Cc1ccc(O)cc1` [H--Tyr--Tic--Phe--Trp--NH2] (HELM PEPTIDE1{Y.[Tic].F.W.[am]}$$$$V2.0), in test [1], the affinity, expressed as Ki, was 1.21 ± 0.19 nM and the “Ki^μ /Ki^δ (δ-selectivity)” value was 258. Moreover, the Ki in test [2] came to 312 ± 75 nM.
In the case of `N[C@@H](Cc1ccc(O)cc1)C(=O)N1Cc2ccccc2C[C@H]1C(=O)N[C@@H](Cc1c[nH]c2ccccc12)C(=O)N[C@@H](Cc1ccc([N+](=O)[O-])cc1)C(=O)O` [H--Tyr--Tic--Trp--Phe(p-NO2)--OH] (HELM PEPTIDE1{Y.[Tic].W.[O=C(O)[C@H](Cc1ccc([N+](=O)[O-])cc1)N[*:1]]}$$$$V2.0), in test [1], the Ki was found to be 0.33 ± 0.004 nM and the “Ki^μ /Ki^δ (δ-selectivity)” value was 4610. Moreover, the affinity in test [2] corresponds to a Ki of 1520 ± 42 nM.
The corresponding values for `NC(=O)[C@H](Cc1ccccc1)NC(=O)[C@H](Cc1c[nH]c2ccccc12)NC(=O)[C@@H]1Cc2ccccc2CN1C(=O)[C@@H](N)Cc1ccc(O)cc1` [H--Tyr--Tic--Trp--Phe--NH2] (HELM PEPTIDE1{Y.[Tic].W.F.[am]}$$$$V2.0) are 0.248 ± 0.009 nM, 709 and 176 ± 21 nM.
With `N[C@@H](Cc1ccc(O)cc1)C(=O)N1Cc2ccccc2C[C@H]1C(=O)N[C@@H](Cc1c[nH]c2ccccc12)C(=O)N[C@@H](Cc1ccccc1)C(=O)O` [H--Tyr--Tic--Trp--Phe--OH] (HELM PEPTIDE1{Y.[Tic].W.F}$$$$V2.0), in test [1], the affinity, expressed as Ki, was 0.301 ± 0.042 nM and the “Ki^μ /Ki^δ (δ-selectivity)” value was 5950. In addition, the Ki in test [2] came to 1790 ± 380 nM.
On to `C=CCN(CC=C)[C@@H](Cc1ccc(O)cc1)C(=O)NC(C)(C)C(=O)NC(C)(C)C(=O)N[C@@H](Cc1ccccc1)C(=O)N[C@@H](CC(C)C)C(=O)O` [ICI 174864, N,N--diallyl--Tyr--Aib--Aib--Phe--Leu--OH, reference compound] (HELM PEPTIDE1{[C=CCN(CC=C)[C@@H](Cc1ccc(O)cc1)C(=O)[*:2]].[Aib].[Aib].F.L}$$$$V2.0), for which the “antagonist potency in the MVD assay compared with the most potent and selective δ antagonists of the patent” value in test [4] worked out at 20 times less potent. The “δ-selectivity compared with the most potent and selective δ antagonists of the patent” value in test [1] (comparison with the patent's best compounds) was found to be 40 times less.
For the molecule `Oc1ccc2c3c1O[C@H]1c4[nH]c5ccccc5c4C[C@@]4(O)[C@@H](C2)N(CC2CC2)CC[C@]314` [Naltrindole, naltrindole, reference compound], the Ki in test [1] was 0.687 ± 0.1 nM. The “Ke (antagonist properties) in the guinea pig ileum (GPI) assay” value in test [5] was 29 nM.
